Read-outs that look alike come from different tables or passages of the source.
Key:
scalp psoriasis = assay: Scalp Specific IGA (ss-IGA), Example 1; assay type: in vivo, human; conditions: Week 16
Description: The Scalp Specific Investigator Global Assessment (ss-IGA) instrument is used to evaluate the disease severity of scalp psoriasis. The lesions are assessed in terms of the clinical signs of redness, thickness, and scaliness which are scored as: absence of disease (0), very mild disease (1), mild disease (2), moderate disease (3), and severe disease (4).
Clinician-reported outcomes including Psoriasis Area and Severity Index (PASI), Body Surface Area (BSA), Investigator's Global Assessment (IGA), Nail Psoriasis Area and Severity Index (NAPSI), Fingernail Physician's Global Assessment (f-PGA), Static Physician's Global Assessment of Genitalia (s-PGA-G), Physician's Global Assessment of Hands and/or Feet (hf-PGA), and Scalp Specific Investigator Global Assessment (ss-IGA) were obtained at Week 0, 8, and 16. PASI and IGA were also obtained at Weeks 1, 2, 4, and 12, and at Week 20, four weeks after the administration of the tablets has stopped.
Proportion of Patients Achieving scalp-specific (ss)-IGA score 0/1 and ss-IGA score 0 and With at Least a 2-Grade Improvement from baseline at Week 16.

IL-22 = assay: Serum IL-22 immunoassay; assay type: in vivo, human; conditions: all treatment groups relative to placebo
Description: (§1) To evaluate psoriasis relevant systemic biomarkers (Beta-defensin 2 (BD-2), IL-17A, IL-17F, and IL-22), protein concentrations were measured in serum using validated immunoassays. The IL-17A (Catalog #03-0159-00) and IL-17F (Catalog #03-0164-00) assays used are commercially available SMC™-based high sensitivity immunoassays produced by the EMD Millipore Corporation. The manufacturer's protocols were followed and analyzed on the Erenna® instrument platform except for the use of 11 μL Elution Buffer B. While the IL-22 assay is also based on the SMC™ platform and run on the Erenna instrument, the assay was developed internally as a coated plate-based assay. The development and optimization of the BD-2 assay was done on the Meso Scale Discovery on the electrochemiluminescence-based platform, a division of Meso Scale Diagnostics LLC (MSD). For all assays, concentration adjustments were made to values measuring below empirically defined LLOQ or empirically defined ULOQ values. Assay QC verified performance of generated standard curves (average concentration recovery & CV of technical replicates) and control samples (inter-assay plate agreement (CV)).
(§2) Serum levels of psoriasis disease biomarkers BD-2, IL-22, IL-17A, and IL-17F relative to baseline were analyzed in patients who received placebo or the compound of Formula (I) and compared to clinical response. […]

IL-17F = assay: Serum IL-17F immunoassay; assay type: in vivo, human; conditions: all treatment groups relative to placebo
Description: as §1, §2

[1] = test system: neutralizing antibodies to the IL-23 receptor antagonist peptide; conditions: through Week 16

SMILES: CC(=O)NCCCC[C@@H]1NC(=O)[C@H](Cc2c[nH]c3c(C)cccc23)NC(=O)[C@H]([C@@H](C)O)NC(=O)[C@H](CC(N)=O)NC(=O)[C@@H](NC(C)=O)C(C)(C)SSC(C)(C)[C@@H](C(=O)N[C@@H](Cc2ccc(OCCN)cc2)C(=O)N[C@@H](Cc2ccc3ccccc3c2)C(=O)NC2(C(=O)N[C@@H](CCC(=O)O)C(=O)N[C@@H](CC(N)=O)C(=O)N[C@@H](Cc3cccnc3)C(=O)N(C)CC(N)=O)CCOCC2)NC1=O [IL-23 receptor antagonist peptide, Ac-[Pen]*-N-T-[W(7-Me)]-[Lys(Ac)]-[Pen]*-Phe[4-(2-aminoethoxy)]-[2-Nal]-[THP]-E-N-[3-Pal]-Sarc-NH2 (*[Pen]-[Pen]* formdisulfidebond)]
- ss-IGA score 0/1 and ≥2-grade improvement from baseline, % (scalp psoriasis; 25 mg BID, baseline ss-IGA score ≥2, n=32): (65.6) %
- ss-IGA score 0/1 and ≥2-grade improvement from baseline, % (scalp psoriasis; 25 mg QD, baseline ss-IGA score ≥2, n=37): (32.4) %
- ss-IGA score 0/1 and ≥2-grade improvement from baseline, % (scalp psoriasis; 50 mg QD, baseline ss-IGA score ≥2, n=40): 70.0%
- ss-IGA score 0/1 and ≥2-grade improvement from baseline, % (scalp psoriasis; 100 mg BID, baseline ss-IGA score ≥2, n=36): 75.0%
- ss-IGA score 0/1 and ≥2-grade improvement from baseline, % (scalp psoriasis; 100 mg QD, baseline ss-IGA score ≥2, n=40): 67.5%
- Response rate ss-IGA score 0/1 with ≥2-grade improvement from baseline (scalp psoriasis; all doses vs placebo): significantly higher than placebo
- IL-22 serum levels (IL-22): statistically significant reduction
- IL-17F serum levels (IL-17F): Statistically significant reductions
- Subjects negative for neutralizing antibodies, % ([1]; 25 mg QD, 1 evaluable): (100%)
- Subjects negative for neutralizing antibodies, % ([1]; 50 mg QD, 1 evaluable): (100%)
- Subjects negative for neutralizing antibodies, % ([1]; 100 mg BID, 3 evaluable): (100%)
- Subjects negative for neutralizing antibodies, % ([1]; 100 mg QD, 3 evaluable): (100%)
- Subjects negative for neutralizing antibodies, % ([1]; Combined doses, 8 evaluable): (100%)
- NAb result of ADA-positive samples [1]: negative
